Entries after “also recorded” stand apart in the source; their conditions may differ. Like-named read-outs stand apart in the source and are kept apart here.
Key:
Influenza virus = assay: microbe, parasite or virus in culture; format: cell-based, Influenza virus (patient isolate)
Adenovirus = assay: microbe, parasite or virus in culture; format: cell-based, Adenovirus (patient isolate)
HSV-2 strain G = assay: microbe, parasite or virus in culture; format: cell-based, Herpes simplex virus type 2
Enterovirus (ECHO-11) = assay: microbe, parasite or virus in culture; format: cell-based
HSV-1 strain F = assay: microbe, parasite or virus in culture; format: cell-based, Herpes simplex virus type 1
HIV in AA-2 cells = assay: HIV propagation in AA-2 cells (cytopathogenicity); format: cell-based; details: for inhibition at 3000 µM: varying HIV dilutions, read-out: HIV growth inhibition in AA-2 cells
Experimental: (§1) Whereas the activation of latent HIV by various DNAs and its prevention by 6-ABP were shown above, the following experiments examine the effects of 6-ABP on the direct propagation of highly virulent HIV strain obtained from NIH in Molt III cells, using cell supernatant as source of virus on AA-2 and MT2 cells in culture. More than 60 tests were performed varying virus titers, time of exposure, and exposure to 6-ABP.
The effect of 1 and 3 mM 6-ABP on the rate of HIV propagation is assayed by cytopathogenicity at a fixed HIV dilution 1:1600.
FIG. 7 illustrates the effect of 3 mM 6-ABP on HIV growth inhibition in AA-2 cells after 3 days and 6 days. The culture was exposed to 3 mM of the drug at varying HIV dilutions. 6-ABP concentration acting for 3 or 6 consecutive days on AA-2 cells is depicted as a function of virus concentration (given as HIV dilution on the abscissa).

HIV in MT-2 cells = assay: HIV syncytia formation in MT-2 cells; format: cell-based; details: 3 mM
Experimental: as §1
Equivalent results, shown in FIG. 9, were obtained with MT-2 cells. In FIG. 9, the inhibition of syncytia formation was quantitatively assayed. […] At very high HIV titre, at 1:100 dilution the untreated syncitia formation was 150 times higher than in treated culture.

[1] = tested on: HIV in human lymphoblasts; assay: HIV in human lymphoblasts (reverse transcriptase assay); format: cell-based; details: 18 hours exposure, FIG. 11E
Experimental: (§2) In FIGS. 11A through 11E, normal lymphoblasts stimulated with PHA are infected with HIV and at the same time are submitted to various concentrations from 0-10 mM 6-ABP. After the short exposure of 18 hours, both HIV and 6-ABP are removed, FIGS. 11A, 11C, 11E and the 6-ABP in the same concentrations is readded up to 4 days to cultures shown in FIGS. 11B and 11D. At 4 days, proliferation index measured by ^3 H-thymidine incorporation is determined in FIGS. 11A and 11B. […] In FIGS. 11C and […], the viral synthesis or inhibition is measured by p 24 assay.
Human peripheral blood mononuclear cells from a noninfected, normal individual were stimulated for 2 to 3 days with phytohemagglutinin in tissue culture, washed, aliquoted and cultured overnight with 200 TCID or 50 TCID of HIV and were untreated or treated with 0.01, 0.1, 1.0 or 10.0 mM 6-ABP. An additional control was incubated with 10 mM 6-ABP without presence of HIV. After the overnight incubation, […]. The cells were placed in culture in medium containing IL-2, but in the absence of additional 6-ABP, and monitored at 6 days and 12 days for the production of HIV-p24 core antigen, or for measurements of particulate reverse transcriptase. […]
HIV p24 antigen was measured by ELISA, with a cutoff of 5 pgm/ml. […]

human lymphoblasts = assay: Lymphoblast DNA synthesis / viability (3H-thymidine incorporation); format: cell-based
Experimental: as §2
The viability of lymphoblasts was measured by incubating the cells exposed to IL-2, HIV and to 6-ABP with H3-thymidine for 6 hours on the sixth day of culture and determining the amount of cpm incorporated per 100,000 cells placed in culture.
In order to ascertain that relatively short 18 hours exposure of human lymphoblasts selectively blocks HIV replication and has minimal effects on DNA synthesis of lymphoblasts, the proliferation, p24 and reverse transcriptase experiments were also performed, as shown in FIG. 11.
In panel A (top) DNA synthesis of lymphoblasts is assayed as a function of 6-ABP concentration. In panel A' (lower curve) the decay of HIV replication is simultaneously determined, and in A "panel" reverse transcriptase was assayed. All these are accepted assays for HIV replication.

[2] = Intracellular metabolism of 6-ABP
HIV-LTR = assay: cells
Experimental: All chimeric CAT constructions were prepared in pCATB' containing the CAT structural gene without eukaryotic promoter sequence.
DNA transfection was performed with DEAE dextran. Briefly, U937 cells (5×10^6) were exposed for 60 min. at 37° C. to a mixture of DEAE Dextran (1.05 ug/ml) and DNA in STBS buffer (25 mM Tris HCl, having pH 7.5, 137 mM NaCl, 0.5 MgCl2, 0.7 mM CaCl2 and 5 mM KCl and 0.6 mM Na2 HPO4) in 15 ml snap cap 6×35 mm polyethylene dishes from Costar, Cambridge, Mass., at 5×10^6 cells per well. Routinely, transfection mixtures contained 1.0 ug of target supercoiled plasmid and 0.1 ug DNA to equalize nucleic acid concentration effects. Transfected cells were harvested 40 to 44 hr post transfection in CAT harvest buffer (40 mM Tris, having pH 7.4 150 mM NaCl, 1 mM EDTA) and stored at -20° C. until assayed.
Routine assay conditions employed 0.2 uCi of [^14 C]-chloramphenicol substrate and an incubation time of 60 min. For quantitative estimates of CAT activity and fold activation, the appropriate sections were cut from the thin-layer chromatography scintillation fluid added and the radioactivity was counted in a scintillation counter. Quantitative comparisons were made by measuring the amounts of chloramphenicol-acetate product with enzyme concentrations and time. pSV CAT was used as a positive control, and the parent (pCATB') was used as a negative control. […]

ADPRT = details: FEBS Lett., 212:73 (1987); cited from earlier work
[3] = 1 mM 6-ABP, 24 hours before infection
[4] = 1, 5 and 10 mM, zero time vs 4 hours after infection

Nc1ccc2oc(=O)ccc2c1 [6-ABP, 6-amino-1,2-benzopyrone]
Virus Titer +6-ABP (Influenza) (Influenza virus; 1 mM 6-ABP, 24 hours before infection, highest dilution that caused 50% hemagglutination): 1 × 10^4 | effect on Influenza virus growth (Influenza virus; 6-ABP treatment): no effect | inhibition at 1000 µM (Influenza virus; unidentified influenza virus, read-out: % Inhibition (Influenza)): 0% | Virus Titer +6-ABP (Adenovirus) (Adenovirus; [3]): 1 × 10^2 TCID50 | effect on Adenovirus growth (Adenovirus; 6-ABP treatment): no effect | inhibition at 1000 µM (Adenovirus; unidentified adenovirus, 1 mM 6-ABP, 24 hours before infection): 0% | Virus Titer +6-ABP (HSV-2) (HSV-2 strain G; [3]): 2 × 10^5 PFU per ml | effect of time of drug addition, HSV-2 (G) (HSV-2 strain G; [4]): essentially no differences found between the two modes of drug exposure | inhibition of HSV-2 strain G growth (HSV-2 strain G; 1-10 mM, 24 hours pretreatment, HEp-2 cells): 90-97% | inhibition at 1000 µM (HSV-2 strain G; Human alphaherpesvirus 2, 0 h, 1 mM at 0 hours (time of infection), read-out: inhibition of HSV-2 growth): 85% | inhibition at 1000 µM (HSV-2 strain G; Human alphaherpesvirus 2, 1 mM 6-ABP, 24 hours before infection, read-out: % Inhibition (HSV-2), Table 1): 87.5% | inhibition at 1000 µM (HSV-2 strain G; Human alphaherpesvirus 2, 1 mM, 24 hours pretreatment, read-out: inhibition of HSV-2 growth): 90% | inhibition at 1000 µM (HSV-2 strain G; Human alphaherpesvirus 2, 4 h, 1 mM at 4 hours post infection, read-out: inhibition of HSV-2 growth): 72% | inhibition at 200 µM (HSV-2 strain G; Human alphaherpesvirus 2, HEp-2, 0.2 mM, 24 hours pretreatment, HEp-2 cells, read-out: inhibition of HSV-2 strain G growth): ~45% | Virus Titer +6-ABP (Enterovirus) (Enterovirus (ECHO-11); 1 mM 6-ABP, 24 hours before infection, ECHO-11): 1.6 × 10^6 TCID50 | effect on Enterovirus growth (Enterovirus (ECHO-11); 6-ABP treatment): no effect | inhibition at 1000 µM (Enterovirus (ECHO-11); Enterovirus, 1 mM 6-ABP, 24 hours before infection, ECHO-11): 0% | effect of time of drug addition, HSV-1 (F) (HSV-1 strain F; [4]): essentially no differences found between the two modes of drug exposure | dependence of inhibitory effect on cell type (HSV-1 strain F; HSV growth in HEp-2, Vero and MRC-5 cells): not affected by cell type | inhibition at 1000 µM (HSV-1 strain F; Human alphaherpesvirus 1, 1 mM at 0 and 4 hours post infection, respectively, read-out: inhibition of HSV-1 growth): 60 to 65% | inhibition at 1000 µM (HSV-1 strain F; Human alphaherpesvirus 1, 1 mM, 24 hours before infection, read-out: inhibition of HSV-1 growth): 50% | inhibition at 10000 µM (HSV-1 strain F; Human alphaherpesvirus 1, 10 mM, 0 and 4 hours post infection, read-out: inhibition of HSV-1 growth): ~80% | inhibition at 2000 µM (HSV-1 strain F; Human alphaherpesvirus 1, HEp-2, 24 h, 2 mM, 24 hrs preexposure, HEp-2 cells, FIG. 1A, read-out: inhibition of HSV-1 strain F growth): > 50% | IC50 (HSV-1 strain F; Human alphaherpesvirus 1, 24 hours pretreatment, HEp-2 cells, read-out: concentration for 50% inhibition of growth, HSV-1 strain F): 2000 µM | HIV propagation in AA-2 cells (HIV in AA-2 cells; 1 mM, HIV dilution 1:1600): able to suppress the HIV propagation only slightly | HIV replication, AA-2 cells (HIV in AA-2 cells; 3 mM, Example 5): complete abrogation of HIV replication | HIV propagation in AA-2 cells (HIV in AA-2 cells; 3 mM, day 6, HIV dilution 1:1600): completely eliminates HIV propagation | inhibition at 3000 µM (HIV in AA-2 cells; Human immunodeficiency virus 1, 72 h, 3 mM, 3 days): 70 to 100% | inhibition at 3000 µM (HIV in AA-2 cells; Human immunodeficiency virus 1, 144 h, 3 mM, 6 days): 25 to 100% | HIV production / syncytia formation in MT-2 cells (HIV in MT-2 cells): nearly completely suppressed HIV production | untreated syncytia formation relative to treated culture (HIV in MT-2 cells; HIV titre 1:100 dilution): 150 times | virus inhibition, reverse transcriptase assay [1]: virus inhibition | viability of lymphoblasts (human lymphoblasts; 4 consecutive days exposure): viability of lymphoblasts was not affected by the drug | DNA synthesis of lymphoblasts (human lymphoblasts; 18 hours exposure, FIG. 11A): does not influence genomic DNA synthesis; also recorded: did not effect the DNA synthesis; also recorded: cellular DNA synthesis virtually unaffected | DNA synthesis of lymphoblasts (human lymphoblasts; 4 days exposure, FIG. 11B): temporarily also inhibited; also recorded: inhibitory effect on lymphoblast DNA synthesis | reduction-oxidation cycle ([2]; liver vs target cells): high in liver but much lower in target cells | intracellular oxidation ([2]; to 6-nitroso-1,2-benzopyrone): rapid oxidation at the 6-amino position | fold induction at 5000 µM (HIV-LTR; Human immunodeficiency virus 1, U-937, read-out: Fold Activation, HSV-IE-110 + 6-ABP, 5 mM 6-ABP, HSV-IE-110): 20 | fold induction at 2000 µM (HIV-LTR; Human immunodeficiency virus 1, U-937, read-out: HIV-LTR-CAT activation by IE-110 after treatment, 2 mM 6-ABP, FIG. 5, 344-fold activation without drug): 0.4 to 0.9 | binding to ADPRT (ADPRT): specifically binding to ADPRT at the same site that also binds catalytically effective DNA termini

Reference: patent publication US5583155A, “6-amino-1,2-benzopyrones useful for treatment of viral diseases” (Octamer, Inc., priority 1994, dated 1996)
